Laboratory results published in patent US8741834B2, “Dipeptoid prodrugs and the use thereof” (Bayer Intellectual Property GmbH, priority 2008, dated 2014).
Where a name gives a salt, the structure may show the parent alone.

Assays:
[1] = Determination of the solubility in 5% strength aqueous dextrose solution; assay type: physicochemical; details: saline or isotonic, thermodynamic from solid, room temperature
Description: The test substance is suspended in 5% strength aqueous dextrose solution. This suspension is shaken at room temperature for 24 h. After ultracentrifugation at 224 000 g for 30 min, the supernatant is diluted with DMSO and analysed by HPLC. A two-point calibration plot of the test compound in DMSO is used for quantification.
Agilent 1100 with DAD (G1315A), quat. Pump (G1311A), autosampler CTC HTS PAL, degasser (G1322A) and column thermostat (G1316A); column: Phenomenex Gemini C18, 5 μm, 50 mm×2 mm; temperature: 40° C.; eluent A: water/phosphoric acid pH 2, eluent B: acetonitrile; flow rate: 0.7 ml/min; gradient: 0-0.5 min 85% A, 15% B; ramp 0.5-3 min 10% A, 90% B; 3-3.5 min 10% A, 90% B; ramp 3.5-4 min 85% A, 15% B; 4-5 min 85% A, 15% B.
Agilent 1100 with DAD (G1315A), quat. pump (G1311A), autosampler CTC HTS PAL, degasser (G1322A) and column thermostat (G1316A); column: VDSoptilab Kromasil 100 C18, 3.5 μm, 60 mm×2.1 mm; temperature: 30° C.; eluent A: water+5 ml of perchloric acid/liter, eluent B: acetonitrile; flow rate: 0.75 ml/min; gradient: 0-0.5 min 98% A, 2% B; ramp 0.5-4.5 min 10% A, 90% B; 4.5-6 min 10% A, 90% B; ramp 6.5-6.7 min 98% A, 2% B; 6.7-7.5 min 98% A, 2% B.

[2] = Stability in buffer at various pH values; assay type: physicochemical
Description: 0.3 mg of the test substance is weighed into a 2 ml HPLC vial and 0.5 ml of acetonitrile or acetonitrile/DMSO (9:1) is added. The substance is dissolved by putting the sample vessel in an ultrasonic bath for about 10 seconds. Then 0.5 ml of the respective buffer solution is added, and the sample is again treated in the ultrasonic bath.
pH 2: 0.03 mol of citric acid, 0.061 mol of sodium chloride and 0.0082 mol of hydrochoric acid ad 1 liter of water;
pH 4: 1 liter of Millipore water is adjusted to pH 4.0 with 1 N hydrochloric acid;
pH 5: 0.096 mol of citric acid and 0.2 mol of sodium hydroxide ad 1 liter of water;
pH 6: 0.06 mol of citric acid and 0.16 mol of sodium hydroxide ad 1 liter of water;
pH 7.4: 90.0 g of sodium chloride, 13.61 g of potassium dihydrogen phosphate and 83.35 g of 1 N sodium hydroxide solution are made up to 1 liter with water; this solution is then further diluted 1:10 with Millipore water.
pH 8: 0.013 mol of borax and 0.021 mol of hydrochloric acid ad 1 liter of water.
5 μl portions of the test solution are analyzed by HPLC for their content of unchanged test substance, and of active substance (A) formed, every hour over a period of 24 hours at 37° C. The percentage areas of the appropriate peaks are used for quantification.
The ratios of the peak areas (F) at the respective time points in relation to the peak areas at the starting time are shown in Table 2 for representative exemplary embodiments: […]

| SMILES | solubility thermodynamic at 24 h [1] [µg/mL] | % test substance after 4 h [F(t = 4 h) × 100/F(t = 0 h)] ([2]; pH 4, 37° C.) [%] | % test substance after 24 h [F(t = 24 h) × 100/F(t = 0 h)] ([2]; pH 4, 37° C.) [%] | % test substance after 4 h [F(t = 4 h) × 100/F(t = 0 h)] ([2]; pH 7.4, 37° C.) [%] | % test substance after 24 h [F(t = 24 h) × 100/F(t = 0 h)] ([2]; pH 7.4, 37° C.) [%] | % test substance after 4 h [F(t = 4 h) × 100/F(t = 0 h)] ([2]; pH 5, 37° C.) [%] | % test substance after 24 h [F(t = 24 h) × 100/F(t = 0 h)] ([2]; pH 5, 37° C.) [%] |
| --- | --- | --- | --- | --- | --- | --- | --- |
| C[C@H](NC(=O)[C@@H](N)CCN)C(=O)OC[C@H](COc1ccc(-c2c(C#N)c(N)nc(SCc3coc(-c4ccc(Cl)cc4)n3)c2C#N)cc1)OC(=O)[C@H](C)NC(=O)[C@@H](N)CCN [Example 3, (2S)-3-{4-[2-Amino-6-({[2-(4-chlorophenyl)-1,3-oxazol-4-yl]methyl}sulfanyl)-3,5-dicyanopyridin-4-yl]phenoxy}propane-1,2-diyl (2S,2′S)-bis(2-{[(2S)-2,4-diaminobutanoyl]amino}propanoate)tetrahydrochloride] | 590 | – | – | – | – | – | – |
| C[C@H](NC(=O)[C@@H](N)CCCN)C(=O)OC[C@H](COc1ccc(-c2c(C#N)c(N)nc(SCc3coc(-c4ccc(Cl)cc4)n3)c2C#N)cc1)OC(=O)[C@H](C)NC(=O)[C@@H](N)CCCN [Example 4, (2S)-3-{4-[2-Amino-6-({[2-(4-chlorophenyl)-1,3-oxazol-4-yl]methyl}sulfanyl)-3,5-dicyanopyridin-4-yl]phenoxy}propane-1,2-diyl (2S,2′S)-bis(2-{[(2S)-2,5-diaminopentanoyl]amino}propanoate)tetrahydrochloride] | 860 | – | – | – | – | – | – |
| C[C@H](NC(=O)C[C@H](N)C(=O)O)C(=O)OC[C@H](COc1ccc(-c2c(C#N)c(N)nc(SCc3coc(-c4ccc(Cl)cc4)n3)c2C#N)cc1)OC(=O)[C@H](C)NC(=O)C[C@H](N)C(=O)O [Example 14, (2S,6S,9S,13S,17S)-2,17-Diamino-9-({4-[2-amino-6-({[2-(4-chlorophenyl)-1,3-oxazol-4-yl]methyl}sulfanyl)-3,5-dicyanopyridin-4-yl]phenoxy}methyl)-6,13-dimethyl-4,7,12,15-tetraoxo-8,11-dioxa-5,14-diazaoctadecane-1,18-dioic acid bis(trifluoroacetic acid) salt] | – | 96 | 95 | 100 | 91 | – | – |
| CC(C)[C@H](N)C(=O)N[C@@H](C)C(=O)OC[C@H](COc1ccc(-c2c(C#N)c(N)nc(SCc3coc(-c4ccc(Cl)cc4)n3)c2C#N)cc1)OC(=O)[C@H](C)NC(=O)[C@@H](N)C(C)C [Example 26, (2S)-3-{4-[2-Amino-6-({[2-(4-chlorophenyl)-1,3-oxazol-4-yl]methyl}sulfanyl)-3,5-dicyanopyridin-4-yl]phenoxy}propane-1,2-diyl (2S,2′S)-bis(2-{[(2S)-2-amino-3-methylbutanoyl]amino}propanoate)dihydrochloride] | – | 100 | 99 | 84 | 34 | 97 | 92 |
| CC(C)[C@H](NC(=O)[C@H](C)N)C(=O)OC[C@H](COc1ccc(-c2c(C#N)c(N)nc(SCc3coc(-c4ccc(Cl)cc4)n3)c2C#N)cc1)OC(=O)[C@@H](NC(=O)[C@H](C)N)C(C)C [Example 28, (2S)-3-{4-[2-Amino-6-({[2-(4-chlorophenyl)-1,3-oxazol-4-yl]methyl}sulfanyl)-3,5-dicyanopyridin-4-yl]phenoxy}propane-1,2-diyl(2S,2′S)-bis(2-{[(2S)-2-aminopropanoyl]amino}-3-methylbutanoate)dihydrochloride] | – | 100 | 99 | 99 | 88 | – | – |
| C[C@H](N)C(=O)NCCC(=O)OC[C@H](COc1ccc(-c2c(C#N)c(N)nc(SCc3coc(-c4ccc(Cl)cc4)n3)c2C#N)cc1)OC(=O)CCNC(=O)[C@H](C)N [Example 31, (2S)-3-{4-[2-Amino-6-({[2-(4-chlorophenyl)-1,3-oxazol-4-yl]methyl}sulfanyl)-3,5-dicyanopyridin-4-yl]phenoxy}propane-1,2-diyl bis(3-{[(2S)-2-aminopropanoyl)amino}propanoate)dihydrochloride] | 220 | – | – | – | – | – | – |
| C[C@H](NC(=O)[C@@H](N)CCCCN)C(=O)OC[C@@H](COc1ccc(-c2c(C#N)c(N)nc(SCc3coc(-c4ccc(Cl)cc4)n3)c2C#N)cc1)OC(=O)[C@H](C)NC(=O)[C@@H](N)CCCCN [Example 34, (2R)-3-{4-[2-Amino-6-({[2-(4-chlorophenyl)-1,3-oxazol-4-yl]methyl}sulfanyl)-3,5-dicyanopyridin-4-yl]phenoxy}propane-1,2-diyl(2S,2′S)-bis(2-{[(2S)-2,6-diaminohexanoyl]amino}propanoate)tetrahydrochloride] | – | 100 | 99 | 0 | 0 | – | – |
| C[C@H](NC(=O)[C@@H](N)CCCCN)C(=O)OC[C@H](COc1ccc(-c2c(C#N)c(N)nc(SCc3coc(-c4ccc(Cl)cc4)n3)c2C#N)cc1)OC(=O)[C@H](C)NC(=O)[C@@H](N)CCCCN [Example 35, (2S)-3-{4-[2-Amino-6-({[2-(4-chlorophenyl)-1,3-oxazol-4-yl]methyl}sulfanyl)-3,5-dicyanopyridin-4-yl]phenoxy}propane-1,2-diyl(2S,2′S)-bis(2-{[(2S)-2,6-diaminohexanoyl)amino}propanoate)tetrahydrochloride] | 610 | 98 | 94 | 2 | 0 | – | – |
| C[C@@H](O)[C@H](NC(=O)CN)C(=O)OC[C@H](COc1ccc(-c2c(C#N)c(N)nc(SCc3coc(-c4ccc(Cl)cc4)n3)c2C#N)cc1)OC(=O)[C@@H](NC(=O)CN)[C@@H](C)O [Example 36, (2S)-3-{4-[2-Amino-6-({[2-(4-chlorophenyl)-1,3-oxazol-4-yl]methyl}sulfanyl)-3,5-dicyanopyridin-4-yl]phenoxy}propane-1,2-diyl (2S,3R,2′S,3′R)-bis{2-[(aminoacetyl)amino]-3-hydroxybutanoate}bis(trifluoroacetic acid) salt] | 700 | – | – | – | – | – | – |
| C[C@H](N)C(=O)N[C@H](C(=O)OC[C@H](COc1ccc(-c2c(C#N)c(N)nc(SCc3coc(-c4ccc(Cl)cc4)n3)c2C#N)cc1)OC(=O)[C@@H](NC(=O)[C@H](C)N)[C@@H](C)O)[C@@H](C)O [Example 38, (2S)-3-{4-[2-Amino-6-({[2-(4-chlorophenyl)-1,3-oxazol-4-yl]methyl}sulfanyl)-3,5-dicyanopyridin-4-yl]phenoxy}propane-1,2-diyl (2S,3R,2′S,3′R)-bis(2-{[(2S)-2-aminopropanoyl]amino}-3-hydroxybutanoate)bis(trifluoroacetic acid) salt] | 750 | – | – | – | – | – | – |
| C[C@@H](O)[C@H](N)C(=O)NCCC(=O)OC[C@H](COc1ccc(-c2c(C#N)c(N)nc(SCc3coc(-c4ccc(Cl)cc4)n3)c2C#N)cc1)OC(=O)CCNC(=O)[C@@H](N)[C@@H](C)O [Example 39, (2S)-3-{4-[2-Amino-6-({[2-(4-chlorophenyl)-1,3-oxazol-4-yl]methyl}sulfanyl)-3,5-dicyanopyridin-4-yl]phenoxy}propane-1,2-diyl bis(3-{[(2S,3R)-2-amino-3-hydroxybutanoyl]amino}propanoate)bis(trifluoroacetic acid) salt] | 490 | – | – | – | – | – | – |
